In patent US20250163104A1, “MACROCYCLIC IMMUNOMODULATORS” (priority 2021, published 2025) one finds IC50 data, which are given here for 10 molecules.

The term IC50 denotes the concentration at which inhibition is half-maximal.

The experiment concerns the target T1, human PD-1 / PD-L1-Ig binding on Jurkat cell line over-expressing human PD-1 (Jurkat-PD-1) (Homo sapiens, UniProt Q15116).
T1 construct: expressed in transfected cells; host or cells: Jurkat
Put plainly: Jurkat-PD-1 Cell Binding High-Content Screening Assay (CBA). Particulars: PE-labeled PD-L1-Ig 20 nM final. The format is cell-based. Put shortly:
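Jurkat-hPD-1 cells in DMEM with 10% fetal calf serum receive test compound and are held at 37° C for 2 h. PE-labeled PD-L1-Ig is added at 20 nM final and left for 1 hour. Cells are then fixed and Hoechst-stained, and binding is measured by imaging.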

[1] abbreviates: Jurkat-PD-1 cells, read-out: Jurkat HPD1_PDL1 IC50.

SMILES strings stand for the structures. Like-named read-outs stand apart in the source and are kept apart here. *1 amine or outer side, *2 acyl side, *3 side chain or, on linkers, in order; H or OH if unused. Where a SMILES comes first, the peptide text is derived from it. Bridges are numbered along the chain shown (N, C = ends). [ ]: non-standard residue; d: D form. The star is where a group is joined. ξ: configuration not given here. Bip = N[C@@H](Cc1ccc(-c2ccccc2)cc1)C(=O)O; Phe(3-Me) = Cc1cccc(C[C@H](N)C(=O)O)c1; βAsp = O=C(O)[C@H](CC(=O)[*:2])N[*:1]; hArg = N=C(N)NCCCC[C@H](N)C(=O)O; 4Pal = N[C@@H](Cc1ccncc1)C(=O)O; Cha = N[C@@H](CC1CCCCC1)C(=O)O; Cit = NC(=O)NCCC[C@H](N)C(=O)O; Thr(3ξ) = CC(O)[C@H](N)C(=O)O; Carboxymethyl = O=C(O)C*; Orn = NCCC[C@H](N)C(=O)O; Pra = C#CC[C@H](N)C(=O)O; Dab = NCC[C@H](N)C(=O)O; Abu = CC[C@H](N)C(=O)O; Dap = NC[C@H](N)C(=O)O; ξV = CC(C)C(N)C(=O)O; Propargyl = C#CC*; ξS = NC(CO)C(=O)O

T1 sequence (Q15116 25-288): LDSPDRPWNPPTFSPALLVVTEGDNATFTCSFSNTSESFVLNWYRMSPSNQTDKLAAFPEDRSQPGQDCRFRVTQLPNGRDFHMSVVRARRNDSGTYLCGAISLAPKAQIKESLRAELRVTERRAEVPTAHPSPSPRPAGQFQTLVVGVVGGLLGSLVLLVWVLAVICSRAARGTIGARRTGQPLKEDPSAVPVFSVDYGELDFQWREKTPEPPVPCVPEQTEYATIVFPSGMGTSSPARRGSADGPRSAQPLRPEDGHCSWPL

As for `CC(=O)NCCCC[C@@H]1NC(=O)[C@H](CCCNC(N)=O)NC(=O)[C@H](Cc2ccc(-c3ccccc3)cc2)NC(=O)[C@H](C(C)C)NC(=O)[C@H](Cc2cccc(C)c2)NC(=O)[C@H](CC(N)=O)NC(=O)[C@H](Cc2ccc(OCC(=O)O)cc2)NC(=O)[C@H](Cc2ccccc2)NC(=O)CSC[C@@H](C(=O)N[C@@H](C)C(N)=O)NC(=O)[C@H](CO)NC(=O)[C@H](C(C)C)NC(=O)[C@H](CC2CCCCC2)NC(=O)[C@H](CC(N)=O)NC(=O)[C@@H](CC(C)C)NC1=O` [Compound 2501] ({CH2CO}-FY(Carboxymethyl)N[Phe(3-Me)]V[Bip][Cit]K(Ac)[dL]N[Cha]VSCA-NH2; thioether N-14), under setting [1], the IC50 came out at 17.3 nM.

On to `CC(C)C[C@@H]1NC(=O)[C@H](CCN)NC(=O)[C@@H](CC(C)C)NC(=O)[C@H](CCN)NC(=O)[C@H](C(C)C)NC(=O)[C@H](Cc2ccc(-c3ccccc3)cc2)NC(=O)[C@H](C(C)C)NC(=O)[C@H](Cc2c[nH]c3ccccc23)NC(=O)[C@H](CC(N)=O)NC(=O)[C@H](Cc2ccc(O)cc2)NC(=O)[C@H](CC(N)=O)NC(=O)CSC[C@@H](C(=O)N[C@@H](C)C(N)=O)NC(=O)[C@H](CO)NC(=O)[C@H](C(C)C)NC1=O` [Compound 1080] ({CH2CO}-NYNWV[Bip]V[Dab][dL][Dab]LVSCA-NH2; thioether N-14), for which the IC50 under setting [1] came to 47.1 nM.

`CC(C)C[C@H]1NC(=O)[C@H](CCCN)NC(=O)[C@H](C(C)C)NC(=O)[C@H](Cc2ccc(-c3ccccc3)cc2)NC(=O)[C@H](C(C)C)NC(=O)[C@H](Cc2c[nH]c3ccccc23)NC(=O)[C@H](CC(=O)O)NC(=O)[C@H](Cc2ccc(OCC(=O)O)cc2)NC(=O)[C@H](Cc2ccc(OCC(=O)O)cc2)NC(=O)CSC[C@@H](C(=O)N[C@@H](C)C(N)=O)NC(=O)[C@H]([C@@H](C)O)NC(=O)[C@H](C(C)C)NC(=O)[C@H](CC2CCCCC2)NC(=O)[C@H](Cc2c[nH]cn2)NC1=O` [Compound 1591] gave an IC50 (Jurkat HPD1_PDL1 IC50, Jurkat-PD-1 cells) of 17.9 nM.

Turning to `C#CC[C@H](NC(=O)C[C@H](NC(=O)[C@H](CCN)NC(=O)[C@@H]1CSCC(=O)N[C@@H](Cc2ccc(OCC(=O)O)cc2)C(=O)N[C@@H](Cc2ccncc2)C(=O)N[C@@H](CC(=O)O)C(=O)N[C@@H](Cc2cccc(C)c2)C(=O)N[C@@H](C(C)C)C(=O)N[C@@H](Cc2ccc(-c3ccccc3)cc2)C(=O)N[C@@H](CCCNC(N)=O)C(=O)N[C@@H](CCCN)C(=O)N[C@H](CC(C)C)C(=O)N[C@@H](CCN)C(=O)N[C@@H](CC2CCCCC2)C(=O)N[C@@H](C(C)C)C(=O)N[C@@H]([C@@H](C)O)C(=O)N1)C(=O)O)C(N)=O` [Compound 1768] ({CH2CO}-Y(Carboxymethyl)[4Pal]D[Phe(3-Me)]V[Bip][Cit][Orn][dL][Dab][Cha]VTC[Dab][βAsp][Pra]-NH2; thioether N-14), the IC50 under setting [1] is 10.1 nM.

Regarding `CC(C)C[C@H]1NC(=O)[C@H](CCCN)NC(=O)[C@H](C(C)C)NC(=O)[C@H](Cc2ccc(-c3ccccc3)cc2)NC(=O)[C@H](C(C)C)NC(=O)[C@H](Cc2c[nH]c3ccccc23)NC(=O)[C@H](CC(=O)O)NC(=O)[C@H](Cc2ccc(OCC(=O)O)cc2)NC(=O)[C@H](C(C)O)NC(=O)CSC[C@@H](C(=O)N[C@@H](CC(N)=O)C(N)=O)NC(=O)[C@H](CO)NC(=O)[C@H](C(C)C)NC(=O)[C@H](CC2CCCCC2)NC(=O)[C@H](CCN)NC1=O` (stereo partly drawn) [Compound 2550] ({CH2CO}-[Thr(3ξ)]Y(Carboxymethyl)DWV[Bip]V[Orn][dL][Dab][Cha]VSCN-NH2; thioether N-14), the IC50 under setting [1] came to 4.9 nM.

Regarding `CC(C)C[C@H]1NC(=O)[C@H](CCCN)NC(=O)[C@H](CCCNC(N)=O)NC(=O)[C@H](Cc2ccc(-c3ccccc3)cc2)NC(=O)[C@H](C(C)C)NC(=O)[C@H](Cc2c[nH]c3ccccc23)NC(=O)[C@H](CC(=O)O)NC(=O)[C@H](Cc2ccc(O)cc2)NC(=O)[C@H](CN)NC(=O)CSC[C@@H](C(=O)N[C@@H](C)C(N)=O)NC(=O)[C@H]([C@@H](C)O)NC(=O)[C@H](C(C)C)NC(=O)[C@H](CC2CCCCC2)NC(=O)[C@H](CCCNC(=N)N)NC1=O` [Compound 1153] ({CH2CO}-[Dap]YDWV[Bip][Cit][Orn][dL]R[Cha]VTCA-NH2; thioether N-14), under setting [1], the 50% inhibitory concentration (IC50) was determined as 8.9 nM.

On to `Cc1cccc(C[C@@H]2NC(=O)[C@H](CC(=O)O)NC(=O)[C@H](Cc3ccc(OCC(=O)O)cc3)NC(=O)[C@H](CCCCNC(=N)N)NC(=O)CSC[C@@H](C(=O)N[C@@H](CCCN)C(=O)NC(CO)C(N)=O)NC(=O)[C@H](CO)NC(=O)C(C(C)C)NC(=O)[C@H](CC3CCCCC3)NC(=O)[C@H](CCN)NC(=O)[C@@H](CC(C)C)NC(=O)[C@H](CCCN)NC(=O)[C@H](CCCNC(N)=O)NC(=O)[C@H](Cc3ccc(-c4ccccc4)cc3)NC(=O)[C@H](C(C)C)NC2=O)c1` (stereo partly drawn) [Compound 2592] ({CH2CO}-[hArg]Y(Carboxymethyl)D[Phe(3-Me)]V[Bip][Cit][Orn][dL][Dab][Cha][ξV]SC[Orn][ξS]-NH2; thioether N-14), for which the IC50 under setting [1] worked out at 15.3 nM.

For the molecule `CC[C@H](C)[C@@H]1NC(=O)[C@H](Cc2ccc(-c3ccccc3)cc2)NC(=O)[C@H](C(C)C)NC(=O)[C@H](Cc2cccc(OC)c2)NC(=O)[C@H](CC(=O)O)NC(=O)[C@H](Cc2ccc(C(=O)O)cc2)NC(=O)[C@H](Cc2ccncc2)NC(=O)CSC[C@@H](C(=O)N[C@@H](C)C(N)=O)NC(=O)[C@H]([C@@H](C)O)NC(=O)[C@H](C(C)C)NC(=O)[C@H](CC(C)C)NC(=O)[C@H](CCN)NC(=O)[C@@H](CC(C)C)NC(=O)[C@H](CCCN)NC1=O` [Compound 1181], the IC50 under setting [1] is 12 nM. As to `C#CCOc1ccc(C[C@@H]2NC(=O)[C@H](Cc3cccc(C)c3)NC(=O)[C@H](CC(=O)O)NC(=O)[C@H](Cc3ccc(OCC(=O)O)cc3)NC(=O)[C@H](CC)NC(=O)CSC[C@@H](C(=O)N[C@@H](CCN)C(N)=O)NC(=O)[C@H](CCC(=O)O)NC(=O)[C@H](C(C)C)NC(=O)[C@H](CC3CCCCC3)NC(=O)[C@H](CCN)NC(=O)[C@@H](CC(C)C)NC(=O)[C@H](CCCN)NC(=O)[C@H](Cc3ccc(OCC(=O)O)cc3)NC(=O)[C@H](Cc3ccc(-c4ccccc4)cc3)NC2=O)cc1` [Compound 1840] ({CH2CO}-[Abu]Y(Carboxymethyl)D[Phe(3-Me)]Y(Propargyl)[Bip]Y(Carboxymethyl)[Orn][dL][Dab][Cha]VEC[Dab]-NH2; thioether N-14), under setting [1], the IC50 worked out at 3.4 nM. Same read-out and setting: as for `CC(C)C[C@@H]1NC(=O)[C@H](CCN)NC(=O)[C@@H](CC(C)C)NC(=O)[C@@H](CC(C)C)NC(=O)[C@H](C(C)C)NC(=O)[C@H](Cc2ccc(-c3ccccc3)cc2)NC(=O)[C@H](C(C)C)NC(=O)[C@H](Cc2c[nH]c3ccccc23)NC(=O)[C@H](CC(=O)O)NC(=O)[C@H](Cc2ccc(O)cc2)NC(=O)[C@H](CC(N)=O)NC(=O)CSC[C@@H](C(=O)N[C@@H](C)C(N)=O)NC(=O)[C@H]([C@@H](C)O)NC(=O)[C@H](C(C)C)NC1=O` [Compound 1032] ({CH2CO}-NYDWV[Bip]V[dL][dL][Dab]LVTCA-NH2; thioether N-14), the figure is 15.5 nM.
